In the assay the target is T1, alpha-amylase (Homo sapiens, UniProt P0DUB6).
T1 sequence (P0DUB6 16-511): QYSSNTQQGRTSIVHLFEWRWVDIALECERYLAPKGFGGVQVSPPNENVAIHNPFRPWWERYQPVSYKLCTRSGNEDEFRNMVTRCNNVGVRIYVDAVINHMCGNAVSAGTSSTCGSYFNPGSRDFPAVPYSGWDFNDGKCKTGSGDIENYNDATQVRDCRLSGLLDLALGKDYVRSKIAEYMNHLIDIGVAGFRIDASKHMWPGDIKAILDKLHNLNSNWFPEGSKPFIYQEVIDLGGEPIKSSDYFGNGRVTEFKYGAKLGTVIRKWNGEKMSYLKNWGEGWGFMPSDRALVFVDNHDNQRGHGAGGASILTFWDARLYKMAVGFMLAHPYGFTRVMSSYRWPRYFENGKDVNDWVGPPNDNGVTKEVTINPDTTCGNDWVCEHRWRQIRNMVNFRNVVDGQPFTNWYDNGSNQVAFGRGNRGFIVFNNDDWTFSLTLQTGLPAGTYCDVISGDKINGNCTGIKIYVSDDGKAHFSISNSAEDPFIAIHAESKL
The assay can be described thus: In vitro inhibition of alpha-amylase (colorimetric, starch to maltose). Format: biochemical. The conditions noted are these: read-out: Inhibitory Activity Alpha-amylase. On the procedure: The methods for determining enzyme activities are conventional colorimetric methods.
The principle is as follows: • starch is incubated with an enzyme (for example human salivary amylase).

With `C[C@H]1O[C@H](O[C@H]2[C@H](O)[C@@H](O)[C@@H](O[C@H]3[C@H](O)[C@@H](O)C(O)O[C@@H]3CO)O[C@@H]2CO)[C@H](O)[C@@H](O)[C@@H]1N[C@H]1C=C(CO)[C@@H](O)[C@H](O)[C@H]1O` (stereo partly shown) [Glucor ™, Acarbose], the inhibition at 1000 µg/mL amounted to 93%.

(Values after US20140199410A1, “EDIBLE BROWN ALGAE EXTRACT WITH A LOW IODINE CONTENT” (ALGUES ET MER, priority 2011, published 2014).)
